These results are taken from patent publication US20240300944A1, “NOVEL UREA DERIVATIVE COMPOUND AS RON INHIBITOR” (LG CHEM, LTD., priority 2021, published 2024).

One assay addresses cMET (Homo sapiens, UniProt P08581). As to the kind of experiment: Inhibitory activity against MET (cMET), TR-FRET kinase assay. The assay is classed as biochemical. Particulars: cMET enzyme. As for the experimental part:
In addition, in order to measure the enzyme activity inhibition for cMET, the evaluation was performed in the same manner as the enzyme activity inhibition measurement experiment for the RON.
Specifically, the compound was prepared to a concentration of 1 mM with 100% DMSO and was diluted 10 times in a stepwise manner through 3-fold dilution. 2 ul of the compound diluted in a stepwise manner was added to a 96-well-plate containing 48 ul of a 1× kinase reaction buffer (50 mM HEPES (pH 7.4), 0.05% BSA, 0.005% Tween-20, 1 mM DTT, 0.5 mM MnCl2, 20 mM MgCl2).
The cMET protein was diluted to a concentration of 263 nM with a cMET storage buffer (50 mM Tris-HCl (pH 7.5), 150 mM NaCl, 0.05% Brij35, 1 mM DTT, 10% Glycerol), and then diluted again to a concentration of 2 nM with a 1× kinase reaction buffer. As a substrate cocktail, a MET-specific substrate mixture (5 uM TK peptide, […]) at a concentration 2 times the final reaction concentration.
Thereafter, a 384-well-plate was prepared, and 2.5 μl of each of the diluted compounds of Examples was added to a corresponding well of experimental group wells, and 2.5 μl of a 4% DMSO solution was dispensed into high control wells and low control wells.
(§1) Thereafter, 2.5 μL of 2 nM cMET was dispensed into the high control wells and the experimental group wells, and 2.5 μL of a 1× kinase reaction buffer was added to the low control wells, and the […] and the reaction buffer were centrifuged at room temperature for 40 seconds at 1000 RPM, and then incubated at room temperature for 20 to 30 minutes. Then, 5 μL of a substrate cocktail (2×) was dispensed into all wells, centrifuged at room temperature for 40 seconds at 1000 RPM, and then incubated at room temperature for 60 minutes. Thereafter, 5 μL of 90 mM EDTA was added to all wells to terminate the reaction, and then incubated again at room temperature for 5 minutes. Thereafter, 5 μL of a 4× phosphotyrosine antibody (Perkin Elmer) containing europium was added to all wells, and then incubated at room temperature for 60 minutes. After the incubation, the 384-well-plate was read with a Vison plate reader. At this time, the excitation wavelength was 340 nm, and the emission wavelength was 620 nm and 665 nm. The IC50 value of the compound of each Example was derived using the GraphPd Prism7 program.
For orientation: TR-FRET usually uses a lanthanide donor and a delayed reading to cut background.

The next assay concerns the target RON (Homo sapiens, UniProt Q04912). As to the kind of experiment: Inhibitory activity against RON, TR-FRET kinase assay. The assay is classed as biochemical. The note with it: RON enzyme. As for the experimental part: In order to measure the inhibitory activity of each of the compounds of Examples against RON, the IC50 of each of the compounds was measured using a Time-Resolved Fluorescence Energy Transfer Chemistry (TR-FRET).
Specifically, the compound was prepared to a concentration of 1 mM with 100% DMSO and was diluted 10 times in a stepwise manner through 3-fold dilution. 2 ul of the compound diluted in a stepwise manner was added to a 96-well-plate containing 48 ul of a 1× kinase reaction buffer (50 mM HEPES (pH 7.4), 0.01% Tween-20, 5 mM DTT, 0.5 mM Na3VO4, 2 mM EGTA, 10 mM MgCl2).
The RON protein was diluted to a concentration of 49.3 nM with an RON storage buffer (50 mM Tris-HCl (pH 7.5), 150 mM NaCl, 0.5 mM EDTA, 0.02% Triton X-100), and then diluted again to a concentration of 0.4 nM with a 1× kinase reaction buffer. As a substrate cocktail, a RON-specific substrate mixture (40 uM ULight-labeled Poly GT, 100 nM ATP) at a concentration 2 times the final reaction concentration.
Thereafter, a 384-well-plate was prepared, and 2.5 ul of each of the diluted compounds of Examples was added to a corresponding well of experimental group wells, and 2.5 ul of a 4% DMSO solution was dispensed into high control wells and low control wells.
as §1, with “of 0.4” for “of 2”, “nM RON” for “nM cMET”, “of 30” for “of 90”

SMILES strings stand for the structures.

Chain of RON (Q04912 25-1400, species assumed): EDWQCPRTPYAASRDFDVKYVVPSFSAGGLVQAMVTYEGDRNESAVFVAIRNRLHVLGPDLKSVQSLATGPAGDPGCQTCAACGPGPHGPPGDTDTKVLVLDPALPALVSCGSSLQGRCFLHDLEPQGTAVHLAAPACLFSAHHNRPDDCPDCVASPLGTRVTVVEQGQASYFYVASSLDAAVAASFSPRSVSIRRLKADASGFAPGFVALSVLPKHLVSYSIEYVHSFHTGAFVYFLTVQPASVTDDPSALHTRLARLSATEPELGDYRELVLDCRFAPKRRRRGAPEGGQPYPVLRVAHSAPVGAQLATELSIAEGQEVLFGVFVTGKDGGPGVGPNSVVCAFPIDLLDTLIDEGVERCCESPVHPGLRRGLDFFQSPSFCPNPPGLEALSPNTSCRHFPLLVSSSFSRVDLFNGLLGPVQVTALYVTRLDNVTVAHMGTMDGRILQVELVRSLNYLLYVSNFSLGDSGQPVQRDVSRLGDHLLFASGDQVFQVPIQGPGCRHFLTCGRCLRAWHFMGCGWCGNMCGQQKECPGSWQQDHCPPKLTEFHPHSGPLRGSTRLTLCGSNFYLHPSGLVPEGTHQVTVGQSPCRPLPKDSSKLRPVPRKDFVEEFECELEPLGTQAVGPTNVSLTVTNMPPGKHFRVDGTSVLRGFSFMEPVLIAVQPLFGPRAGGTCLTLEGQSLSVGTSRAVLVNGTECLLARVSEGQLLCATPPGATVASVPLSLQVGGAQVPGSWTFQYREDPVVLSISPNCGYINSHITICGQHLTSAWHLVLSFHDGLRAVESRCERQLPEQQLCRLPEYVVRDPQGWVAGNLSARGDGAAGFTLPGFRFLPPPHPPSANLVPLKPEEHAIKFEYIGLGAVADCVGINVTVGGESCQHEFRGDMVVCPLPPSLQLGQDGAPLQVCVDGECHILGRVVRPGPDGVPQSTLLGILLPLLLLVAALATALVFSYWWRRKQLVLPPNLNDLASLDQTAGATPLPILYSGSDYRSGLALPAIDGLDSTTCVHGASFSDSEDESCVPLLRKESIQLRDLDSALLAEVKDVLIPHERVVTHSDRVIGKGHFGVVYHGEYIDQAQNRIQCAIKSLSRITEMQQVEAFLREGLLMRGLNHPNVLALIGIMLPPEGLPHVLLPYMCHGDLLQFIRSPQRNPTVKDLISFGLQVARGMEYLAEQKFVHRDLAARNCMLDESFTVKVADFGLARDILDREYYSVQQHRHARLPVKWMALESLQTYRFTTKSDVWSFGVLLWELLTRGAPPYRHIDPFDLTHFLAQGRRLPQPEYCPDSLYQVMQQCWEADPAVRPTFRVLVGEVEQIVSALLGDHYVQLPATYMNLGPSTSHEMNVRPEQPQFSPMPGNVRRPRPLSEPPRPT
Chain of cMET (P08581 25-1390): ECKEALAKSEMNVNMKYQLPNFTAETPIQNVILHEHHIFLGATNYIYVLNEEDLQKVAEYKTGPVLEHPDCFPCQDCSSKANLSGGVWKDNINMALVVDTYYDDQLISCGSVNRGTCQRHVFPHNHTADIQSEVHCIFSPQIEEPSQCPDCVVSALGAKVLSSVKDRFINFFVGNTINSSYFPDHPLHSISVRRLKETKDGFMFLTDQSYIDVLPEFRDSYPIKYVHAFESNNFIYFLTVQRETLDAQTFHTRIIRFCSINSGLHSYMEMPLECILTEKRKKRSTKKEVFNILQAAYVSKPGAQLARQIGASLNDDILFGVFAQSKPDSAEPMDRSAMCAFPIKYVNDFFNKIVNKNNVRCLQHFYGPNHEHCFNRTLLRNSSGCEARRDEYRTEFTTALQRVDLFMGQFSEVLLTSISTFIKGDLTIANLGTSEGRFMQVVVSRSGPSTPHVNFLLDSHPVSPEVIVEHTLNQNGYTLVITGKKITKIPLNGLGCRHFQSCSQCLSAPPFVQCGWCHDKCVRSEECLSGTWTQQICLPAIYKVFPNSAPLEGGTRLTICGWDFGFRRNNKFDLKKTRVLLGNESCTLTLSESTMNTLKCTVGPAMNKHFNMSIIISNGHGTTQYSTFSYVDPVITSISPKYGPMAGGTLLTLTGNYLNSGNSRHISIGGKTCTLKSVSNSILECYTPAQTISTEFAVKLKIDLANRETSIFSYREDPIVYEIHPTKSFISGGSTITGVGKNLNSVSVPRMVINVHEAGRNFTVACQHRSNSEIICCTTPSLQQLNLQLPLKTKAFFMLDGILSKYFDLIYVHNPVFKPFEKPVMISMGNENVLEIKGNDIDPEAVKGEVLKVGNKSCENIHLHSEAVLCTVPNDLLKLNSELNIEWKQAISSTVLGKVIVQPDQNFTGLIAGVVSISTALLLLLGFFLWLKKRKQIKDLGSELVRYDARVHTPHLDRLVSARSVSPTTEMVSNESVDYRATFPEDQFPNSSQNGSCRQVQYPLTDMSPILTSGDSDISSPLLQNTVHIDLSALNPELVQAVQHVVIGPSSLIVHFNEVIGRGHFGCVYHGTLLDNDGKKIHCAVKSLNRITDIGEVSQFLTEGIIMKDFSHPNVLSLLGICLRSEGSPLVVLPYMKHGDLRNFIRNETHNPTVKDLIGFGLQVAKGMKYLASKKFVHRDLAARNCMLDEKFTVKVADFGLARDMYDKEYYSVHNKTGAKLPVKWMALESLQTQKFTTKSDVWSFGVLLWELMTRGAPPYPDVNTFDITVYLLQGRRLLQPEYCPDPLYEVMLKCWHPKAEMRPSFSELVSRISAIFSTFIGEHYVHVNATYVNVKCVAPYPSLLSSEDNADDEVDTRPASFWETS

By IC50 is commonly meant the concentration needed to halve the response being measured. Read a high IC50 as a need for much substance. For `O=C(Nc1ccc(Oc2ccnc3[nH]c(=O)[nH]c23)c(F)c1)c1ncn(-c2ccccc2)c1C(F)(F)F` [Example 1, N-(3-fluoro-4-((2-oxo-2,3-dihydro-1H-imidazo[4,5-b]pyridine-7-yl)oxy)phenyl)-1-phenyl-5-(trifluoromethyl)-1H-imidazole-4-carboxamide], the IC50 against cMET is over 5000 nM; on RON, under 50 nM.

As for `O=C(Nc1ccc(Oc2ccnc3[nH]c(=O)[nH]c23)c(F)c1)c1cnn(-c2ccccc2)c1C(F)(F)F` [Example 2, N-(3-fluoro-4-((2-oxo-2,3-dihydro-1H-imidazo[4,5-b]pyridine-7-yl)oxy)phenyl)-1-phenyl-5-(trifluoromethyl)-1H-pyrazole-4-carboxamide], the half-inhibitory concentration (IC50) was over 5000 nM against cMET and under 50 nM against RON.

On to `CCn1c(=O)[nH]c2nccc(Oc3ccc(NC(=O)c4ncn(-c5ccccc5)c4C(F)(F)F)cc3F)c21` [Example 3, N-(4-((1-ethyl-2-oxo-2,3-dihydro-1H-imidazo[4,5-b]pyridine-7-yl)oxy)-3-fluorophenyl)-1-phenyl-5-(trifluoromethyl)-1H-imidazole-4-carboxamide], for which the IC50 at cMET is over 5000 nM; at RON, under 50 nM.

`CCn1c(=O)[nH]c2nccc(Oc3ccc(NC(=O)c4cnn(-c5ccccc5)c4C(F)(F)F)cc3F)c21` [Example 4, N-(4-((1-ethyl-2-oxo-2,3-dihydro-1H-imidazo[4,5-b]pyridine-7-yl)oxy)-3-fluorophenyl)-1-phenyl-5-(trifluoromethyl)-1H-pyrazole-4-carboxamide]: the concentration for half-maximal inhibition (IC50) was over 5000 nM against cMET and under 50 nM on RON.

With `Cn1c(=O)[nH]c2nccc(Oc3ccc(NC(=O)c4ncn(-c5ccccc5)c4C(F)(F)F)cc3F)c21` [Example 5, N-(3-fluoro-4-((1-methyl-2-oxo-2,3-dihydro-1H-imidazo[4,5-b]pyridine-7-yl)oxy)phenyl)-1-phenyl-5-(trifluoromethyl)-1H-imidazole-4-carboxamide], the IC50 against cMET was over 5000 nM; against RON it was under 50 nM.

With `Cn1c(=O)[nH]c2nccc(Oc3ccc(NC(=O)c4cnn(-c5ccccc5)c4C(F)(F)F)cc3F)c21` [Example 6, N-(3-fluoro-4-((1-methyl-2-oxo-2,3-dihydro-1H-imidazo[4,5-b]pyridine-7-yl)oxy)phenyl)-1-phenyl-5-(trifluoromethyl)-1H-pyrazole-4-carboxamide], the IC50 is over 5000 nM against cMET and under 50 nM against RON.

As to `CC(C)n1c(=O)[nH]c2nccc(Oc3ccc(NC(=O)c4cnn(-c5ccccc5)c4C(F)(F)F)cc3F)c21` [Example 7, N-(3-fluoro-4-((1-isopropyl-2-oxo-2,3-dihydro-1H-imidazo[4,5-b]pyridine-7-yl)oxy)phenyl)-1-phenyl-5-(trifluoromethyl)-1H-pyrazole-4-carboxamide], the IC50 was 500 to 5000 nM at cMET and under 50 nM against RON.

`CC(C)n1c(=O)[nH]c2nccc(Oc3ccc(NC(=O)c4ncn(-c5ccccc5)c4C(F)(F)F)cc3F)c21` [Example 8, N-(3-fluoro-4-((1-isopropyl-2-oxo-2,3-dihydro-1H-imidazo[4,5-b]pyridine-7-yl)oxy)phenyl)-1-phenyl-5-(trifluoromethyl)-1H-imidazole-4-carboxamide]: the values for the IC50 against cMET and against RON were over 5000 nM and under 50 nM, respectively.

For `CCc1c(C(=O)Nc2ccc(Oc3ccnc4[nH]c(=O)[nH]c34)c(F)c2)cnn1-c1ccccc1` [Example 9, 5-ethyl-N-(3-fluoro-4-((2-oxo-2,3-dihydro-1H-imidazo[4,5-b]pyridine-7-yl)oxy)phenyl)-1-phenyl-1H-pyrazole-4-carboxamide], the half-inhibitory concentration (IC50) on cMET was over 5000 nM; at RON, 50 to 500 nM.

Take `CCc1c(C(=O)Nc2ccc(Oc3ccnc4[nH]c(=O)n(C(C)C)c34)c(F)c2)cnn1-c1ccccc1` [Example 10, 5-ethyl-N-(3-fluoro-4-((1-isopropyl-2-oxo-2,3-dihydro-1H-imidazo[4,5-b]pyridine-7-yl)oxy)phenyl)-1-phenyl-1H-pyrazole-4-carboxamide]: the IC50 is 500 to 5000 nM against cMET and under 50 nM at RON.

With `O=C(Nc1ccc(Oc2ccnc3[nH]c(=O)n(C4CCOCC4)c23)c(F)c1)c1ncn(-c2ccccc2)c1C(F)(F)F` [Example 11, N-(3-fluoro-4-((2-oxo-1-(tetrahydro-2H-pyran-4-yl)-2,3-dihydro-1H-imidazo[4,5-b]pyridine-7-yl)oxy)phenyl)-1-phenyl-5-(trifluoromethyl)-1H-imidazole-4-carboxamide], the IC50 against cMET was over 5000 nM; at RON, under 50 nM.

In the case of `Cc1nn(-c2ccccc2)c(C)c1C(=O)Nc1ccc(Oc2ccnc3[nH]c(=O)[nH]c23)c(F)c1` [Example 12, N-(3-fluoro-4-((2-oxo-2,3-dihydro-1H-imidazo[4,5-b]pyridine-7-yl)oxy)phenyl)-3,5-dimethyl-1-phenyl-1H-pyrazole-4-carboxamide], the half-maximal inhibitory concentration (IC50) is over 5000 nM on cMET and 50 to 500 nM against RON.

Turning to `Cc1nn(-c2ccccc2)c(C)c1C(=O)Nc1ccc(Oc2ccnc3[nH]c(=O)n(C(C)C)c23)c(F)c1` [Example 13, N-(3-fluoro-4-((1-isopropyl-2-oxo-2,3-dihydro-1H-imidazo[4,5-b]pyridine-7-yl)oxy)phenyl)-3,5-dimethyl-1-phenyl-1H-pyrazole-4-carboxamide], the values for the IC50 on cMET and against RON were 50 to 500 nM and under 50 nM, respectively.

On to `Cc1c(C(=O)Nc2ccc(Oc3ccnc4[nH]c(=O)n(C(C)C)c34)c(F)c2)cnn1-c1ccccc1` [Example 14, N-(3-fluoro-4-((1-isopropyl-2-oxo-2,3-dihydro-1H-imidazo[4,5-b]pyridine-7-yl)oxy)phenyl)-5-methyl-1-phenyl-1H-pyrazole-4-carboxamide], for which the values for the IC50 against cMET and against RON were 500 to 5000 nM and under 50 nM, respectively.

With `CC(C)n1c(=O)[nH]c2nccc(Oc3ccc(NC(=O)c4cnc(-c5ccccc5)s4)cc3F)c21` [Example 15, N-(3-fluoro-4-((1-isopropyl-2-oxo-2,3-dihydro-1H-imidazo[4,5-b]pyridine-7-yl)oxy)phenyl)-2-phenylthiazole-5-carboxamide], the IC50 is over 5000 nM on cMET and 50 to 500 nM on RON.

Take `CC(C)n1c(=O)[nH]c2nccc(Oc3ccc(NC(=O)c4ncc(-c5ccccc5)s4)cc3F)c21` [Example 16, N-(3-fluoro-4-((1-isopropyl-2-oxo-2,3-dihydro-1H-imidazo[4,5-b]pyridine-7-yl)oxy)phenyl)-5-phenylthiazole-2-carboxamide]: the IC50 was over 5000 nM at cMET and 50 to 500 nM on RON.

As for `Cc1ccc(-n2ncc(C(=O)Nc3ccc(Oc4ccnc5[nH]c(=O)n(C(C)C)c45)c(F)c3)c2C(F)(F)F)cc1` [Example 17, N-(3-fluoro-4-((1-isopropyl-2-oxo-2,3-dihydro-1H-imidazo[4,5-b]pyridine-7-yl)oxy)phenyl)-1-(p-tolyl)-5-(trifluoromethyl)-1H-pyrazole-4-carboxamide], the IC50 at cMET was over 5000 nM; against RON, 50 to 500 nM.
